From the NIST ThermoML archive (doi:10.1016/j.jct.2008.12.009)
± gives the expanded uncertainty stated by the source.

Assay: excess molar enthalpy (molar enthalpy of mixing); xn = mol fraction of the nth substance listed
Conditions: 101.33 kPa, Gas, Flow calorimetry, x1 = 0.5

| excess molar enthalpy (373.15 K) | excess molar enthalpy (383.15 K) | excess molar enthalpy (393.15 K) | excess molar enthalpy (403.15 K) | excess molar enthalpy (413.15 K) | excess molar enthalpy (423.15 K) | excess molar enthalpy (433.15 K) | excess molar enthalpy (443.15 K) | excess molar enthalpy (453.15 K) | excess molar enthalpy (463.15 K) | excess molar enthalpy (473.15 K) | excess molar enthalpy (483.15 K) | excess molar enthalpy (493.15 K) | Structure (SMILES) |
| --- | --- | --- | --- | --- | --- | --- | --- | --- | --- | --- | --- | --- | --- |
| 0.0132 ± 0.000406 kcal/mol | 0.0115 ± 0.000382 kcal/mol | 0.0103 ± 0.000382 kcal/mol | 0.00908 ± 0.000382 kcal/mol | 0.00822 ± 0.000382 kcal/mol | 0.00741 ± 0.000382 kcal/mol | 0.00679 ± 0.000359 kcal/mol | 0.00619 ± 0.000359 kcal/mol | 0.00564 ± 0.000359 kcal/mol | 0.00516 ± 0.000359 kcal/mol | 0.00483 ± 0.000359 kcal/mol | 0.00449 ± 0.000359 kcal/mol | 0.00413 ± 0.000359 kcal/mol | O=O [oxygen] + O |
| 0.0129 ± 0.000382 kcal/mol | 0.0113 ± 0.000359 kcal/mol | 0.0101 ± 0.000359 kcal/mol | 0.00891 ± 0.000359 kcal/mol | 0.00803 ± 0.000359 kcal/mol | 0.00722 ± 0.000335 kcal/mol | 0.00664 ± 0.000335 kcal/mol | 0.006 ± 0.000335 kcal/mol | 0.00547 ± 0.000335 kcal/mol | 0.00504 ± 0.000335 kcal/mol | 0.00471 ± 0.000335 kcal/mol | 0.0043 ± 0.000335 kcal/mol | 0.00402 ± 0.000335 kcal/mol | N#N [nitrogen] + O |
